Measurements published in ChEMBL document CHEMBL4118155, “A naphthalene diimide G-quadruplex ligand inhibits cell growth and down-regulates BCL-2 expression in an imatinib-resistant gastrointestinal cancer cell line” (Bioorg Med Chem, 2018).
Active and inactive are the calls of the source. The calls are words filed in the database; no cut-off is given here.

How the values were obtained:
[1] = tested on: Quadruplex DNA; assay: Stabilization of 5'-FAM/3'-TAMRA labeled human F21T G-quadruplex DNA assessed as change in melting temperature at 0.5 uM by FRET assay; assay type: nucleic-acid assay
[2] = tested on: Quadruplex DNA; assay: Stabilization of 5'-FAM/3'-TAMRA labeled c-KIT1 G-quadruplex DNA (unknown origin) assessed as change in melting temperature at 0.5 uM by FRET assay; assay type: nucleic-acid assay
[3] = tested on: Quadruplex DNA; assay: Stabilization of 5'-FAM/3'-TAMRA labeled c-KIT2 G-quadruplex DNA (unknown origin) assessed as change in melting temperature at 0.5 uM by FRET assay; assay type: nucleic-acid assay
[4] = tested on: Quadruplex DNA; assay: Stabilization of 5'-FAM/3'-TAMRA labeled BCL-2 promoter G-quadruplex DNA (unknown origin) assessed as change in melting temperature at 0.5 uM by FRET assay; assay type: nucleic-acid assay
[5] = Stabilization of 5'-FAM/3'-TAMRA labeled 5'-UTR BCL-2 G-quadruplex RNA (unknown origin) assessed as change in melting temperature at 0.5 uM by FRET assay
[6] = tested on: dsDNA; assay: Stabilization of 5'-FAM/3'-TAMRA labeled duplex DNA (unknown origin) assessed as change in melting temperature at 0.5 uM by FRET assay; assay type: nucleic-acid assay
[7] = Antiproliferative activity against imatinib-susceptible human GIST882 cells harboring c-KIT K642E mutant after 96 hrs by SRB assay; assay type: functional; details: GIST882, 96 h
[8] = Antiproliferative activity against imatinib-resistant human GIST48 cells harboring c-KIT V560D/D820A double mutant after 96 hrs by SRB assay; assay type: functional; details: GIST48, 96 h
[9] = Antiproliferative activity against imatinib-resistant human GIST62 cells after 96 hrs by SRB assay; assay type: functional
[10] = tested on: MCF7; assay: Antiproliferative activity against human MCF7 cells after 96 hrs by SRB assay; assay type: functional, cell-based; details: MCF7, 96 h
[11] = tested on: HGC-27; assay: Antiproliferative activity against human HGC27 cells after 96 hrs by SRB assay; assay type: functional, cell-based; details: HGC-27, 96 h
[12] = Stabilization of 5'-FAM/3'-TAMRA labeled 5'-UTR BCL-2 G-quadruplex RNA (unknown origin) assessed as melting temperature at 0.5 uM in presence of KCl by FRET assay
[13] = Stabilization of 5'-FAM/3'-TAMRA labeled 5'-UTR BCL-2 G-quadruplex RNA (unknown origin) assessed as melting temperature at 0.5 uM in presence of NaCl by FRET assay
[14] = tested on: HT-29; assay: Antiproliferative activity against human HT-29 cells after 96 hrs by SRB assay; assay type: functional, cell-based; details: HT-29, 96 h
[15] = molecular target: Telomerase reverse transcriptase (Homo sapiens) (UniProt O14746); assay: Inhibition of telomerase activity in imatinib-resistant human GIST48 cells harboring c-KIT V560D/D820A double mutant at 0.05 to 0.30 uM incubated for 1 week by Sybr green staining based TRAP-PCR method
[16] = molecular target: Telomerase reverse transcriptase (Homo sapiens) (UniProt O14746); assay: Inhibition of telomerase activity in imatinib-susceptible human GIST882 cells harboring c-KIT K642E mutant at 0.5 uM incubated for 1 week by Sybr green staining based TRAP-PCR method
[17] = tested on: Quadruplex DNA; assay: Stabilization of c-KIT G-quadruplex DNA in imatinib-resistant human GIST48 cells harboring c-KIT V560D/D820A double mutant assessed as downregulation of c-KIT protein expression at 1 uM after 24 hrs by immunoblot analysis relative to control
[18] = tested on: Quadruplex DNA; assay: Stabilization of c-KIT G-quadruplex DNA in imatinib-resistant human GIST48 cells harboring c-KIT V560D/D820A double mutant assessed as downregulation of c-KIT protein expression at 1 uM after 1 week by immunoblot analysis relative to control
[19] = tested on: Quadruplex DNA; assay: Stabilization of c-KIT G-quadruplex DNA in imatinib-susceptible human GIST882 cells harboring c-KIT K642E mutant assessed as downregulation of c-KIT protein expression at 1 uM after 24 hrs by immunoblot analysis relative to control
[20] = species on record: Homo sapiens; assay: Stabilization of 5'-UTR BCL-2 G-quadruplex RNA in imatinib-resistant human GIST48 cells harboring c-KIT V560D/D820A double mutant at 0.3 uM after 1 week by immunoblot analysis relative to control
[21] = Stabilization of 5'-UTR BCL-2 G-quadruplex RNA (unknown origin) transfected in imatinib-susceptible human GIST882 cells harboring c-KIT K642E mutant assessed as decrease in RNA translation by dual luciferase reporter gene assay
[22] = Stabilization of 5'-UTR BCL-2 G-quadruplex RNA (unknown origin) transfected in imatinib-susceptible human GIST882 cells harboring c-KIT K642E mutant assessed as decrease in RNA translation at 10 uM by dual luciferase reporter gene assay relative to control; design: scale not given: the % may be the effect or the level left

Chain of Telomerase reverse transcriptase (Homo sapiens) (O14746 whole entry): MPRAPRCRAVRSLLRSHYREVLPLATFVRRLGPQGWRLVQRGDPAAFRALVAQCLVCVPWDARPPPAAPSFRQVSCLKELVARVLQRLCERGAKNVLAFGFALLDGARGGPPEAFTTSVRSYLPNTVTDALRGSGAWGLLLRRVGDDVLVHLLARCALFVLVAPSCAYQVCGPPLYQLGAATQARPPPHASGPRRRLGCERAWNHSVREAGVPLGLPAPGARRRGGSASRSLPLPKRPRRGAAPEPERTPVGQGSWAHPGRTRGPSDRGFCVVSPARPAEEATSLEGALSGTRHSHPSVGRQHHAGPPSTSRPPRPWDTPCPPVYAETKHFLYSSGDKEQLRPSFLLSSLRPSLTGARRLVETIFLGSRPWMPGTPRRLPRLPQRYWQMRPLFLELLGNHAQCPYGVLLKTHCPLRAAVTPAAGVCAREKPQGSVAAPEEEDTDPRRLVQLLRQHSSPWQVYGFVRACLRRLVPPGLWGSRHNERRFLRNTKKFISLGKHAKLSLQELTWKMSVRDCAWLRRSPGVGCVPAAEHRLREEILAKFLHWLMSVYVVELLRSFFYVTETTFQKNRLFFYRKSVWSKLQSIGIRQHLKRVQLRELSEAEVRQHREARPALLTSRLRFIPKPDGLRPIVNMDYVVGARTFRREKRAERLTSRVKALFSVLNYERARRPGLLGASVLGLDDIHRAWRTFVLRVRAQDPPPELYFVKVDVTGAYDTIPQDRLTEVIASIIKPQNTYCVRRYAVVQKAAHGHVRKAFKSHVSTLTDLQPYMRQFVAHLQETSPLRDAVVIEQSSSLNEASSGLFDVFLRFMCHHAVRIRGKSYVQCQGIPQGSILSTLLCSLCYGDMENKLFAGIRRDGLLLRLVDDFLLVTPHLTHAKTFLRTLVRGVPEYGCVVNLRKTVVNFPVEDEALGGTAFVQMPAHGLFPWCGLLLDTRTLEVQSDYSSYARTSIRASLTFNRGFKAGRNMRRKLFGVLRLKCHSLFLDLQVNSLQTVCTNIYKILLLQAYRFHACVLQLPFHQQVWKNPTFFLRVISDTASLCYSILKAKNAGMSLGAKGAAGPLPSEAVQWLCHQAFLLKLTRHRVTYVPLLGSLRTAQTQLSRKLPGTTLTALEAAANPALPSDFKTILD

| ΔTm [1] [°C] | ΔTm [2] [°C] | ΔTm [3] [°C] | ΔTm [4] [°C] | ΔTm [5] [°C] | ΔTm [6] [°C] | Structure (SMILES) | IC50 [7] [µM] | IC50 [8] [µM] | IC50 [9] [µM] | IC50 [11] [µM] | other results |
| --- | --- | --- | --- | --- | --- | --- | --- | --- | --- | --- | --- |
| 0.2 | 0.2 | 0.2 | 0.1 | 0.1 | 0.1 | Cc1ccc(NC(=O)c2ccc(CN3CCN(C)CC3)cc2)cc1Nc1nccc(-c2cccnc2)n1 [IMATINIB] | 1.7 | 19.8 | > 25 | – | IC50 [10]: 11.3 µM |
| 21.6 | 6.5 | 18.5 | 17.9 | – | 7.2 | CN(C)c1ccc(Nc2c3ccc(NC(=O)CCN4CCCC4)cc3nc3cc(NC(=O)CCN4CCCC4)ccc23)cc1 | > 25 | > 25 | > 25 | 2.3 | – |
| 29.7 | 11.2 | 29 | 27.6 | 10.7 | 3.5 | O=C1c2cc(NCCN3CCCC3)c3c4c(cc(NCCN5CCCC5)c(c24)C(=O)N1CCN1CCCC1)C(=O)N(CCN1CCCC1)C3=O | 1.6 | 0.5 | 0.4 | 0.1 | Tm [12]: 91 °C; Tm [13]: 64.5 °C; IC50 [14]: 0.04 µM; inhibition [15]: inactive; inhibition [16]: Active; Activity [17]: 17%; Activity [18]: 37%; Activity [19]: 90%; Activity [20]: 85%; Activity [21]: Dose-dependent effect; Activity [22]: 30% |
